Source: article PMC12514245, “Impaired migration and lung invasion of human melanoma by a novel small molecule targeting the transmembrane domain of death receptor p75^NTR” (EMBO Molecular Medicine, 2025)
Several values for one entry are separate records, joined by “and”; a condition that tells them apart may be missing. Equal entries are not always repeated.

System: A875 shp75 cells
Assay: Wound healing cell motility assay, A875 shp75
Format: cell-based, human
Conditions: for Wound area, Mean: N=3
Description: For wound healing assay, cells were grown until confluency and subjected to a wound across the cell mono-layer. Cells were then incubated with serum-free media either with DMSO or a small molecule (with or without 5 µM Q_VD_poH) and imaged at specific time-points. Cell migration is reflected as fold change in wound area over time.

[1] = 5μM Q_VD_poH + 10μM Div17E5, 0 hours
[2] = 5μM Q_VD_poH + 10μM Div17E5, 3 hours
[3] = 5μM Q_VD_poH + 10μM Div17E5, 6 hours
[4] = 5μM Q_VD_poH + 10μM Div17E5, 9 hours
[5] = 5μM Q_VD_poH + 10μM Div17E5, 12 hours
[6] = 5μM Q_VD_poH + 10μM Div17E5, 15 hours
[7] = 5μM Q_VD_poH + 10μM Div17E5, 18 hours
[8] = 5μM Q_VD_poH + 10μM Div17E5, 21 hours
[9] = 5μM Q_VD_poH + 10μM Div17E5, 24 hours

Oc1ccc(-c2cncc(Nc3ccc(Br)c(Cl)c3)n2)cc1 [Div17E5]
wound closure: did not significantly affect wound closure
Wound area, n1-n3 [1]: 0.989 Fold and 0.886 Fold and 1.125 Fold
Wound area, Mean [1]: 1.000 Fold
Wound area, n1-n3 [2]: 0.947 Fold and 0.979 Fold and 1.007 Fold
Wound area, Mean [2]: 0.978 Fold
Wound area, n1-n3 [3]: 0.959 Fold and 0.975 Fold and 0.953 Fold
Wound area, Mean [3]: 0.962 Fold
Wound area, n1-n3 [4]: 0.955 Fold and 0.965 Fold and 0.942 Fold
Wound area, Mean [4]: 0.954 Fold
Wound area, n1-n3 [5]: 0.935 Fold and 0.950 Fold and 0.940 Fold
Wound area, Mean [5]: 0.941 Fold
Wound area, n1-n3 [6]: 0.901 Fold and 0.902 Fold and 0.903 Fold
Wound area, Mean [6]: 0.902 Fold
Wound area, n1-n3 [7]: 0.849 Fold and 0.823 Fold
Wound area, Mean [7]: 0.840 Fold
Wound area, n1-n3 [8]: 0.828 Fold and 0.801 Fold and 0.783 Fold
Wound area, Mean [8]: 0.804 Fold
Wound area, n1-n3 [9]: 0.790 Fold and 0.822 Fold and 0.793 Fold
Wound area, Mean [9]: 0.801 Fold
Wound area, n1-n3 (10μM Div17E5, 0 hours): 1.039 Fold and 1.010 Fold and 0.951 Fold
Wound area, Mean (10μM Div17E5, 0 hours): 1.000 Fold
Wound area, n1-n3 (10μM Div17E5, 3 hours): 0.987 Fold and 0.961 Fold and 0.970 Fold
Wound area, Mean (10μM Div17E5, 3 hours): 0.973 Fold
Wound area, n1-n3 (10μM Div17E5, 6 hours): 0.982 Fold and 0.933 Fold and 0.919 Fold
Wound area, Mean (10μM Div17E5, 6 hours): 0.945 Fold
Wound area, n1-n3 (10μM Div17E5, 9 hours): 0.959 Fold and 0.914 Fold and 0.881 Fold
Wound area, Mean (10μM Div17E5, 9 hours): 0.918 Fold
Wound area, n1-n3 (10μM Div17E5, 12 hours): 0.961 Fold and 0.889 Fold and 0.887 Fold
Wound area, Mean (10μM Div17E5, 12 hours): 0.912 Fold
Wound area, n1-n3 (10μM Div17E5, 15 hours): 0.930 Fold and 0.849 Fold and 0.852 Fold
Wound area, Mean (10μM Div17E5, 15 hours): 0.877 Fold
Wound area, n1-n3 (10μM Div17E5, 18 hours): 0.858 Fold and 0.787 Fold and 0.795 Fold
Wound area, Mean (10μM Div17E5, 18 hours): 0.813 Fold
Wound area, n1-n3 (10μM Div17E5, 21 hours): 0.855 Fold and 0.772 Fold and 0.767 Fold
Wound area, Mean (10μM Div17E5, 21 hours): 0.798 Fold
Wound area, n1-n3 (10μM Div17E5, 24 hours): 0.867 Fold and 0.765 Fold and 0.792 Fold
Wound area, Mean (10μM Div17E5, 24 hours): 0.808 Fold
Wound area (Fold) (A875 shp75, 1uM, 0 h, Mean): 1.000 Fold
Wound area (Fold) (A875 shp75, 1uM, 0 h, n1): 0.980 Fold
Wound area (Fold) (A875 shp75, 1uM, 0 h, n2): 1.053 Fold
Wound area (Fold) (A875 shp75, 1uM, 0 h, n3): 0.966 Fold
Wound area (Fold) (A875 shp75, 1uM, 3 h, Mean): 0.957 Fold
Wound area (Fold) (A875 shp75, 1uM, 3 h, n1): 0.947 Fold
Wound area (Fold) (A875 shp75, 1uM, 3 h, n2): 0.963 Fold
Wound area (Fold) (A875 shp75, 1uM, 3 h, n3): 0.960 Fold
Wound area (Fold) (A875 shp75, 1uM, 6 h, Mean): 0.921 Fold
Wound area (Fold) (A875 shp75, 1uM, 6 h, n1): 0.914 Fold
Wound area (Fold) (A875 shp75, 1uM, 6 h, n2): 0.924 Fold
Wound area (Fold) (A875 shp75, 1uM, 6 h, n3): 0.923 Fold
Wound area (Fold) (A875 shp75, 1uM, 9 h, Mean): 0.898 Fold
Wound area (Fold) (A875 shp75, 1uM, 9 h, n1): 0.889 Fold
Wound area (Fold) (A875 shp75, 1uM, 9 h, n2): 0.905 Fold
Wound area (Fold) (A875 shp75, 1uM, 9 h, n3): 0.901 Fold
Wound area (Fold) (A875 shp75, 1uM, 12 h, Mean): 0.873 Fold
Wound area (Fold) (A875 shp75, 1uM, 12 h, n1): 0.869 Fold
Wound area (Fold) (A875 shp75, 1uM, 12 h, n2): 0.870 Fold
Wound area (Fold) (A875 shp75, 1uM, 12 h, n3): 0.881 Fold
Wound area (Fold) (A875 shp75, 1uM, 15 h, Mean): 0.847 Fold
Wound area (Fold) (A875 shp75, 1uM, 15 h, n1): 0.839 Fold
Wound area (Fold) (A875 shp75, 1uM, 15 h, n2): 0.841 Fold
Wound area (Fold) (A875 shp75, 1uM, 15 h, n3): 0.861 Fold
Wound area (Fold) (A875 shp75, 1uM, 18 h, Mean): 0.821 Fold
Wound area (Fold) (A875 shp75, 1uM, 18 h, n1): 0.821 Fold
Wound area (Fold) (A875 shp75, 1uM, 18 h, n2): 0.823 Fold
Wound area (Fold) (A875 shp75, 1uM, 18 h, n3): 0.820 Fold
Wound area (Fold) (A875 shp75, 1uM, 21 h, Mean): 0.792 Fold
Wound area (Fold) (A875 shp75, 1uM, 21 h, n1): 0.780 Fold
Wound area (Fold) (A875 shp75, 1uM, 21 h, n2): 0.797 Fold
Wound area (Fold) (A875 shp75, 1uM, 21 h, n3): 0.800 Fold
Wound area (Fold) (A875 shp75, 1uM, 24 h, Mean): 0.773 Fold
Wound area (Fold) (A875 shp75, 1uM, 24 h, n1): 0.775 Fold
Wound area (Fold) (A875 shp75, 1uM, 24 h, n2): 0.773 Fold
Wound area (Fold) (A875 shp75, 1uM, 24 h, n3): 0.771 Fold
Wound area (Fold) (A875 shp75, 2uM, 0 h, Mean): 1.000 Fold
Wound area (Fold) (A875 shp75, 2uM, 0 h, n1): 1.055 Fold
Wound area (Fold) (A875 shp75, 2uM, 0 h, n2): 0.891 Fold
Wound area (Fold) (A875 shp75, 2uM, 0 h, n3): 1.054 Fold
Wound area (Fold) (A875 shp75, 2uM, 3 h, Mean): 0.908 Fold
Wound area (Fold) (A875 shp75, 2uM, 3 h, n1): 0.882 Fold
Wound area (Fold) (A875 shp75, 2uM, 3 h, n2): 0.921 Fold
Wound area (Fold) (A875 shp75, 2uM, 3 h, n3): 0.922 Fold
Wound area (Fold) (A875 shp75, 2uM, 6 h, Mean): 0.857 Fold
Wound area (Fold) (A875 shp75, 2uM, 6 h, n1): 0.826 Fold
Wound area (Fold) (A875 shp75, 2uM, 6 h, n2): 0.869 Fold
Wound area (Fold) (A875 shp75, 2uM, 6 h, n3): 0.877 Fold
Wound area (Fold) (A875 shp75, 2uM, 9 h, Mean): 0.836 Fold
Wound area (Fold) (A875 shp75, 2uM, 9 h, n1): 0.818 Fold
Wound area (Fold) (A875 shp75, 2uM, 9 h, n2): 0.854 Fold
Wound area (Fold) (A875 shp75, 2uM, 9 h, n3): 0.836 Fold
Wound area (Fold) (A875 shp75, 2uM, 12 h, Mean): 0.798 Fold
Wound area (Fold) (A875 shp75, 2uM, 12 h, n1): 0.793 Fold
Wound area (Fold) (A875 shp75, 2uM, 12 h, n2): 0.807 Fold
Wound area (Fold) (A875 shp75, 2uM, 12 h, n3): 0.794 Fold
Wound area (Fold) (A875 shp75, 2uM, 15 h, Mean): 0.786 Fold
Wound area (Fold) (A875 shp75, 2uM, 15 h, n1): 0.790 Fold
Wound area (Fold) (A875 shp75, 2uM, 15 h, n2): 0.776 Fold
Wound area (Fold) (A875 shp75, 2uM, 15 h, n3): 0.791 Fold
Wound area (Fold) (A875 shp75, 2uM, 18 h, Mean): 0.750 Fold
Wound area (Fold) (A875 shp75, 2uM, 18 h, n1): 0.749 Fold
Wound area (Fold) (A875 shp75, 2uM, 18 h, n2): 0.742 Fold
Wound area (Fold) (A875 shp75, 2uM, 18 h, n3): 0.760 Fold
Wound area (Fold) (A875 shp75, 2uM, 21 h, Mean): 0.731 Fold
Wound area (Fold) (A875 shp75, 2uM, 21 h, n1): 0.738 Fold
Wound area (Fold) (A875 shp75, 2uM, 21 h, n2): 0.705 Fold
Wound area (Fold) (A875 shp75, 2uM, 21 h, n3): 0.751 Fold
Wound area (Fold) (A875 shp75, 2uM, 24 h, Mean): 0.700 Fold
Wound area (Fold) (A875 shp75, 2uM, 24 h, n1): 0.699 Fold
Wound area (Fold) (A875 shp75, 2uM, 24 h, n2): 0.661 Fold
Wound area (Fold) (A875 shp75, 2uM, 24 h, n3): 0.739 Fold
